Data: patent US12668600B2 (Kumquat Biosciences Inc., priority 2023, dated 2026)

Columns and labels:
Format in all cases: biochemical
KRAS G12V = molecular target: T1, KRAS G12V (Homo sapiens, UniProt P01116, G12V); test: HTRF KRAS-SOS1 interaction assay, KRAS G12V; details: binned ≤2 μM / >2 μM, read-out: Inhibition of KRAS G12V (IC50)
T1 construct: made in house; host or cells: E. coli, e.g. BL21 (DE3)
Description: (§1) This assay can be also used to assess a selective inhibition or reduction of signaling output of a mutant Ras protein relative to a wildtype, or relative to a different mutant Ras protein. For example, the equilibrium interaction of wildtype KRAS or K-Ras mutant (e.g., wildtype or a mutant thereof) with SOS1 (e.g., hSOS1) can be assessed as a proxy or an indication for the ability of a subject compound to bind and inhibit Ras protein. The HTRF assay detects from (i) a fluorescence resonance energy transfer (FRET) donor (e.g., antiGST-Europium) that is bound to GST-tagged K-Ras mutant to (ii) a FRET acceptor (e.g., anti-6His-XL665) bound to a His-tagged hSOS1.
(§2) The assay buffer can contain ˜5 mM HEPES pH 7.4, ˜150 mM NaCl, ˜1 mM DTT, 0.05% BSA and 0.0025% (v/v) Igepal. A Ras working solution is prepared in an assay buffer containing typically a suitable amount of the protein construct (e.g., GST-tagged K-Ras mutant) and the FRET donor (e.g., antiGST-Eu (K) from Cisbio, France). A SOS1 working solution is prepared in an assay buffer containing suitable amount of the protein construct (e.g., His-hSOS1) and the FRET acceptor (e.g., anti-6His-XL665 from Cisbio, France). A suitable amount of the protein construct will depend on the range of activity or range of IC50 values being detected or under investigation. For detecting an IC50 within a range of 500 nM, the protein constructs of the same range of molarity can be utilized.
(§3) A fixed volume of DMSO with or without test compound is transferred into a 384-well plate. Ras working solution is added to all wells of the test plate. SOS1 working solution is added to all wells except for those that are subsequently filled with inhibitor control solution. Upon incubation for about 10 minutes or longer, the fluorescence is measured with a M1000Pro plate reader (Tecan) using HTRF detection (excitation 337 nm, emission 1:620 nm, emission 2:665 nm). Compounds are tested in duplicate at different concentrations (for example, 10 μM, 2.5 μM, 0.63 μM, 0.16 μM, 0.04 μM, 0.01 μM test compound). The ratiometric data (i.e., emission 2 divided by emission 1) is used to calculate IC50 values against Ras using GraphPad Prism (GraphPad software). Signaling output measured in terms of IC50 values can be obtained and a ratio of IC50 against one mutant relative to another mutant can be calculated.

KRAS G12S = molecular target: T2, KRAS G12S (Homo sapiens, UniProt P01116, G12S); test: HTRF KRAS-SOS1 interaction assay, KRAS G12S; details: binned ≤2 μM / >2 μM, read-out: Inhibition of KRAS G12S (IC50)
T2 construct: made in house; host or cells: E. coli, e.g. BL21 (DE3)
Description: as §1, §2, §3

KRAS WT = molecular target: T3, KRAS WT (Homo sapiens, UniProt P01116); test: HTRF KRAS-SOS1 interaction assay, wildtype KRAS; details: binned ≤2 μM / >2 μM, read-out: Inhibition of KRAS WT (IC50)
T3 construct: made in house; host or cells: E. coli, e.g. BL21 (DE3)
Description: as §1, §2, §3

Measured: IC50

T3 sequence (P01116 1-188 isoform P01116-2): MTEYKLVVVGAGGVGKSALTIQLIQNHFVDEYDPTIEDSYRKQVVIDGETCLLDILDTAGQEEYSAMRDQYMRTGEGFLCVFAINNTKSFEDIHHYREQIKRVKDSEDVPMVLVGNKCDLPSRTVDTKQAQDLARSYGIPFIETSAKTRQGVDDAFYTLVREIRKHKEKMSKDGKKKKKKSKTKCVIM
T2 sequence (P01116 1-188 isoform P01116-2 G12S): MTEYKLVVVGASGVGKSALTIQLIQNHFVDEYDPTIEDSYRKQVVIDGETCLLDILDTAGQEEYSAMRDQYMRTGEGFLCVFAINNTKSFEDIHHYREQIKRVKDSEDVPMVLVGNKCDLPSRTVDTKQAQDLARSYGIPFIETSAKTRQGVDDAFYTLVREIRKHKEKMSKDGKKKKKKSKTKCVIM
T1 sequence (P01116 1-188 isoform P01116-2 G12V): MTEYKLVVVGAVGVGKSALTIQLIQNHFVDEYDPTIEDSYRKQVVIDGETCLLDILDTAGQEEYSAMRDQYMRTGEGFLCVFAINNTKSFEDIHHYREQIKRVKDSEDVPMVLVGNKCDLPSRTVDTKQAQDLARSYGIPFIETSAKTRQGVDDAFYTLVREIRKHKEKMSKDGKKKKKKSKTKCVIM

C[C@H](c1cccnc1N)N1CCOc2c(Cl)c(-c3ccc(F)c4sc(N)c(C#N)c34)c(F)c3nc(OCC45CCCN4C[C@H](OCCCP(C)(C)=O)C5)nc1c23 (single isomer, unassigned) [Compound 677]
≤ 2 µM: all assays above

CC(c1cncnc1N)N1CCOc2c(Cl)c(-c3ccc(F)c4sc(N)c(C#N)c34)c(F)c3nc(OC[C@@]45CCCN4C[C@H](F)C5)nc1c23 (single isomer, unassigned) [Compound 646]
≤ 2 µM: all assays above

N#Cc1c(N)sc2c(F)ccc(-c3c(C(F)(F)F)c4c5c(nc(OC[C@@]67CCCN6C[C@H](F)C7)nc5c3F)N([C@H](CCC3CCOCC3)c3cccnc3N)CCO4)c12 (single isomer, unassigned) [Compound 611]
≤ 2 µM: all assays above

C[C@H]1CN([C@@H](c2cccnc2N)C(F)F)c2nc(OC[C@@]34CCCN3C[C@H](F)C4)nc3c(F)c(-c4ccc(F)c5sc(N)c(C#N)c45)c(C(F)(F)F)c(c23)O1 (single isomer, unassigned) [Compound 879]
≤ 2 µM: all assays above

N#Cc1c(N)sc2c(F)ccc(-c3c(Cl)c4c5c(nc(OC[C@@]67CCCN6C[C@H](F)C7)nc5c3F)N(C(C=C(F)F)c3cccnc3N)CCO4)c12 (single isomer, unassigned) [Compound 655]
≤ 2 µM: all assays above

N#Cc1c(N)sc2c(F)ccc(-c3c(Cl)c4c5c(nc(OC[C@@]67CCCN6C[C@H](F)C7)nc5c3F)N(C(c3cccnc3N)C(F)F)CCO4)c12 (single isomer, unassigned) [Compound 618]
≤ 2 µM: all assays above

N#Cc1c(N)sc2c(F)ccc(-c3c(C(F)(F)F)c4c5c(nc(OC[C@@]67CCCN6C[C@H](F)C7)nc5c3F)N([C@H](CCN3CCOCC3)c3cccnc3N)CCO4)c12 (single isomer, unassigned) [Compound 685]
≤ 2 µM: all assays above

C[C@H](c1cccnc1N)N1CCOc2c(Cl)c(-c3cccc4sc(N)c(C#N)c34)c(F)c3nc(OC[C@@]45CCCN4C[C@H](F)C5)nc1c23 (single isomer, unassigned) [Compound 668]
≤ 2 µM: all assays above

N#Cc1c(N)sc2c(F)ccc(-c3c(Cl)c4c5c(nc(OC[C@@]67CCCN6C[C@H](F)C7)nc5c3F)N(C(/C=C\C(F)(F)F)c3cccnc3N)CCO4)c12 (single isomer, unassigned) [Compound 632]
≤ 2 µM: all assays above

C=CC[C@H](c1cccnc1N)N1CCOc2c(C(F)(F)F)c(-c3ccc(F)c4sc(N)c(C#N)c34)c(F)c3nc(OC[C@@]45CCCN4C[C@H](F)C5)nc1c23 (single isomer, unassigned) [Compound 616]
≤ 2 µM: all assays above

CCO/N=C1\CN2CCC[C@@]2(COc2nc3c4c(c(Cl)c(-c5ccc(F)c6sc(N)c(C#N)c56)c(F)c4n2)OCCN3[C@H](C)c2cccnc2N)C1 (single isomer, unassigned) [Compound 627]
≤ 2 µM: all assays above

N#Cc1c(N)sc2c(F)ccc(-c3c(C(F)(F)F)c4c5c(nc(OC[C@@]67CCCN6C[C@H](F)C7)nc5c3F)N([C@H](CCC3COCCO3)c3cccnc3N)CCO4)c12 (single isomer, unassigned) [Compound 624]
≤ 2 µM: all assays above

CN(C)CC[C@H](c1cccnc1N)N1CCOc2c(C(F)(F)F)c(-c3ccc(F)c4sc(N)c(C#N)c34)c(F)c3nc(OC[C@@]45CCCN4C[C@H](F)C5)nc1c23 (single isomer, unassigned) [Compound 669]
≤ 2 µM: all assays above

N#Cc1c(N)sc2c(F)ccc(-c3c(C(F)(F)F)c4c5c(nc(OC[C@@]67CCCN6C[C@H](F)C7)nc5c3F)N([C@@H](c3cccnc3N)C(F)F)CCO4)c12 (single isomer, unassigned) [Compound 625]
≤ 2 µM: all assays above

N#Cc1c(N)sc2c(F)ccc(-c3c(C(F)(F)F)c4c5c(nc(OC[C@@]67CCCN6C[C@H](F)C7)nc5c3F)N([C@H](CC3CCOCC3)c3cccnc3N)CCO4)c12 (single isomer, unassigned) [Compound 642]
≤ 2 µM: all assays above

C=Cc1c(-c2ccc(F)c3sc(N)c(C#N)c23)c(F)c2nc(OC[C@@]34CCCN3C[C@H](F)C4)nc3c2c1OCCN3[C@H](C)c1cccnc1N (single isomer, unassigned) [Compound 603]
≤ 2 µM: all assays above

CO/N=C1\CN2CCC[C@@]2(COc2nc3c4c(c(Cl)c(-c5ccc(F)c6sc(N)c(C#N)c56)c(F)c4n2)OCCN3[C@H](C)c2cccnc2N)C1 (single isomer, unassigned) [Compound 607]
≤ 2 µM: all assays above

CP(C)(=O)CC[C@H](c1cccnc1N)N1CCOc2c(C(F)(F)F)c(-c3ccc(F)c4sc(N)c(C#N)c34)c(F)c3nc(OC[C@@]45CCCN4C[C@H](F)C5)nc1c23 (single isomer, unassigned) [Compound 671]
≤ 2 µM: all assays above

C[C@H](c1cccnc1N)N1CCOc2c(Cl)c(-c3ccc(F)c4sc(N)c(C#N)c34)c(F)c3nc(OCC4(CN(C)C)CC4)nc1c23 (single isomer, unassigned) [Compound 638]
≤ 2 µM: all assays above

N#Cc1c(N)sc2c(F)ccc(-c3c(C(F)(F)F)c4c5c(nc(OC[C@@]67CCCN6C[C@H](F)C7)nc5c3F)N([C@H](CC3CC(F)(F)C3)c3cccnc3N)CCO4)c12 (single isomer, unassigned) [Compound 686]
≤ 2 µM: all assays above

C[C@H](c1cccnc1N)N1CCOc2c(Cl)c(-c3cccc4sc(N)c(C#N)c34)c(F)c3nc(OC[C@@]45CCCN4CC(=C(F)F)C5)nc1c23 (single isomer, unassigned) [Compound 660]
≤ 2 µM: all assays above

CS(=O)(=O)CCC[C@H](c1cccnc1N)N1CCOc2c(C(F)(F)F)c(-c3ccc(F)c4sc(N)c(C#N)c34)c(F)c3nc(OC[C@@]45CCCN4C[C@H](F)C5)nc1c23 (single isomer, unassigned) [Compound 629]
≤ 2 µM: all assays above

CCC(c1cccnc1N)N1CCOc2c(Cl)c(-c3ccc(F)c4sc(N)c(C#N)c34)c(F)c3nc(OC[C@@]45CCCN4C[C@H](F)C5)nc1c23 (mixture of isomers) [Compound 643, 2-amino-4-(4-(1-(2-aminopyridin-3-yl)propyl)-8-chloro-10-fluoro-2-(((2R,7aS)-2-fluorotetrahydro-1H-pyrrolizin-7a(5H)-yl)methoxy)-5,6-dihydro-4H-[1,4]oxazepino[5,6,7-de]quinazolin-9-yl)-7-fluorobenzo[b]thiophene-3-carbonitrile]
≤ 2 µM: all assays above
